# Laboratory results taken from patent US7189523B2, “Methods of identifying compounds that modulate IL-4 receptor-mediated IgE synthesis utilizing a B-cell associated protein” (Rigel Pharmaceuticals, Inc., priority 2002, dated 2007).
# Assays:
# [1] = tested on: IL-4 induced germline ε transcription (ε promoter reporter) in naïve A5T4 cells; experiment: Re-infection (DNA transfer) assay in naïve A5T4 reporter cells; also used for the functional profile of the mutants; type: cell-based, human; conditions: for Reporter Ratio: Table 2, CL08wt and mutants screened in the A5T4 reporter line; for functional category of the mutant compared to CL08wt: % change in reporter ratio calculated after subtracting 1.0 from the individual ratios
# Experimental: The ability of peptide CL08wt (SEQ ID NO: 1) to inhibit germline ε transcription was confirmed in naïve cells. Briefly, Phoenix cells were transfected with a retroviral vector encoding a BFP-CL08wt peptide fusion as described in WO 99/58663 and WO 97/27213. Naïve A5T4 cells were infected with the resultant virions and grown for 3 days. The infected cells were stimulated with IL-4 (60 U/mL) and, after 3 days, the cells were assessed by FACS for BFP and GFP. […] The BFP fluorescence data corresponding to the BFP^+ and BFP^− populations are provided in Panel A. The GFP fluorescence data corresponding to the BFP^+ and BFP^− populations are presented in Panel B. The reporter ratio for this purpose is determined as the geometric mean of the GFP fluorescence of the BFP^− population divided by the geometric mean of the GFP fluorescence of the BFP^+ population. The reporter ratio for the CL08 in this re-infection assay was 1.39.
# A collection of CL08 mutants was generated by replacing single or double amino acid residues in the sequence of CL08wt (SEQ ID NO: 1) with a different amino acid, typically an alanine, as described in copending application Ser. No. 10/095,659, entitled Methods of Identifying Protein Targets, filed Mar. 8, 2002. The functional profiles for the mutants derived from CL08wt (SEQ ID NO: 1) was obtained by constructing and screening for activity in the A5T4 reporter cell line in the manner described above. The activity of each mutant at the germline ε promoter is reflected in the reporter ratio, as described above. The reporter ratios were the functional values that were used to develop the functional profiles.
# TABLE 2 depicts the amino acid sequences (the mutations are underlined) of the mutants tested and the measured reporter ratios when screening in the A5T4 reporter line.
# Comparison of the interaction and functional profiles was performed by categorizing the mutants of CL08 based on the functional and interaction assays. Based on the reporter ratio, described in panel C of FIG. 5, each mutant was categorized into one of four functional categories: (1) reduction of function (ROF); (2) loss of function (LOF); (3) increase of function (IOF) or (4) functionally neutral (N), as compared to the activity of the wild type peptide, here CL08wt. As mentioned previously, cells expressing a peptide that inhibits germline ε transcription have reporter ratios of ≧1.1. Cells expressing a loss of function mutant have a reporter ratio of […]. […] Functionally neutral mutants have reporter ratios that fall within ±50% of that of the CL08wt (SEQ ID NO: 1) peptide. The % increase or decrease in reporter ratio is calculated after subtracting 1.0 from the individual ratios. […]
# human BAP-37 (hBAP-37) = molecular target: T1, human BAP-37 (hBAP-37) (Homo sapiens, UniProt Q99623); experiment: β-galactosidase yeast two hybrid (YTH) interaction assay; type: binding; conditions: peptide as bait
# T1 construct: expressed in transfected cells; prey cDNA from a library of the A5T4 reporter line (BJAB human B-cells)
# T1 sequence (Q99623 whole entry): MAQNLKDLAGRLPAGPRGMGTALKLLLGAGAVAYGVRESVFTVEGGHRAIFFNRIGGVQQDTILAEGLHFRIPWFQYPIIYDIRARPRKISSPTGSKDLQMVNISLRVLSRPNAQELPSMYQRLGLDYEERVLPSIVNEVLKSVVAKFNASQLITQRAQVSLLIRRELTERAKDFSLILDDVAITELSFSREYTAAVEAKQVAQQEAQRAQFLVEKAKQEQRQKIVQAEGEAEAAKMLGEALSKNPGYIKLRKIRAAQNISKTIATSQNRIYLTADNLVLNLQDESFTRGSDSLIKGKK
# Experimental: Potential binding partners for peptide CL08wt (SEQ ID NO: 1) were identified in a β-galactosidase yeast two-hybrid (YTH) assay using peptide CL08wt (SEQ ID NO: 1) as bait and a cDNA library constructed from the A5T4 reporter cell line as prey. Binding was assessed by β-galactosidase quantification using BetaFluor (Novagen) as a substrate. A negative interaction control (no cDNA fused downstream of the GAL4 activation domain sequence) was also run. A general outline of the YTH assay is illustrated in FIG. 6A. Following clustering, filtering to remove non-specific bait hits (e.g., GFP and BFP), singletons and clusters recognized by 10 or more cDNA baits (based upon historical YTH assays), 7 prey clones were identified as hits.
# Potential targets identified in the YTH assay were reconfirmed as generally outlined in FIG. 7. The cDNA clones identified as hits in the YTH assay were purified and rescreened for interaction with the CL08wt peptide in YTH assay. The hit clones were also screened in a control assay for interaction with the BFP using a vector (pGBKT7) that contained only the BFP and not the CL08wt peptide. At this stage, 7 putative target clones remained.
# The interaction of CL08wt (SEQ ID NO: 1) peptide and its mutants with the clones identified as potential targets for the peptide CL08wt (SEQ ID NO: 1) was then quantified in a β-galactosidase YTH assay. The YTH assay was performed in the manner described above. A general outline of this YTH assay is illustrated in FIG. 6B. For each clone tested, an interaction profile was developed by comparing the β-galactosidase activity of each mutant to that of the wild type peptide, as described above.
# The interaction of these N, IOF and ROF mutants with different polypeptides encoded by the putative target clones were quantified using the YTH assay described above. […]
# [2] = tested on: ST486 endogenous α promoter; experiment: TAQMAN assay of germline α transcription (selectivity); type: cell-based; conditions: ST486 cells stimulated with TGF-β 40 ng/ml; average of 3 values; p=0.7371
# Experimental: The assay was similar to that described in the immediately preceding section, except that ST486 cells (ATCC #CRL-1647) engineered to express the tetracycline-regulated transactivator were infected and the infected cells were stimulated with TGF-β (40 ng/ml; Peprotech). The primers and probe, which are specific for the transcription product driven by the ST486 endogenous α promoter, were as follows (the probe was labeled at the 5′-end with Fam and at the 3′-end with Tamra): […]
# [3] = tested on: IL-4 induced germline ε transcription (ε promoter reporter) in A5T4 reporter cells; experiment: A5T4 reporter line screening assay of library clones (HBEGF2a/GFP reporter, FACS); type: cell-based, human; conditions: geometric mean GFP fluorescence, +IL-4/+Dox to +IL-4/−Dox populations; IL-4 60 U/mL, Dox 10 ng/ml; ≧1.1 = inhibition
# From the text: Peptide CL08wt (SEQ ID NO: 1) was identified by screening a retroviral library of random peptide 20-mers for the ability to inhibit IL-4 induced germline ε transcription using the HBEGF2a/[…] dual reporter phenotypic screening system described in WO 01/31232. To construct the random library, A5T4 reporter cells (described in more detail below) were infected with an infectious retroviral library of random peptide 20-mers (prepared as described in WO 97/27213; see also WO 01/34806 at page 39, line 36 through page 40, line 19). The retroviral vector used includes a gene encoding blue fluorescent protein (BFP) fused upstream of the region encoding the random peptide via a linker region encoding an α-helical peptide linker (expression fusion product is referred to as “BFP-peptide”). Expression of the BFP-peptide product is controlled by a promoter sensitive to the tetracycline-regulated transactivator such that expression of the BFP-peptide is regulated by tetracycline (Tet) or doxycycline (Dox). See U.S. patent application Ser. No. 10/096,339 entitled “Methods and Compositions for Screening for Alter Cellular Phenotypes”, filed on Mar. 8, 2002. […]
Sequence,Reporter Ratio [1],functional category of the mutant compared to CL08wt [1],binding to human BAP-37 in yeast two hybrid interaction assay (human BAP-37 (hBAP-37)),endogenous α inhibition ratio [2],Reporter Ratio [3]
"TGVHVAAQINRSIMHYISSP (peptide encoded by synthetic oligomer) [CL08EL, double alanine mutant of CL08wt]",1.43,,,,
"TGVHVELQIAASIMHYISSP (peptide encoded by synthetic oligomer) [CL08NR, double alanine mutant of CL08wt]",,IOF (An increase of function mutant (IOF) shows a >50% increase in reporter ratio),bind,,
"TGAAVELQINRSIMHYISSP (peptide encoded by synthetic oligomer) [CL08VH, double alanine mutant of CL08wt]",,ROF (a reduction of function of mutant (ROF) shows a >50% decrease in reporter ratio),bind,,
"TGVHVELQINRSIMAAISSP (peptide encoded by synthetic oligomer) [CL08HY, double alanine mutant of CL08wt]",1.54,,,,
"TGVHVELQINRSIMHYISSP (peptide encoded by synthetic oligomer) [CL08wt, 20-mer peptide from a random retroviral library, expressed as BFP-peptide fusion]",,,bind,1.06,1.37
